pEC50: −log10 of the molar value. One block for each compound: values may come before it.
How the values were obtained:
Gyc-88EL [1] = target: T1, Gyc-88EL (Drosophila melanogaster, UniProt Q8INF0); format: biochemical
T1 sequence (Q8INF0 1-1097): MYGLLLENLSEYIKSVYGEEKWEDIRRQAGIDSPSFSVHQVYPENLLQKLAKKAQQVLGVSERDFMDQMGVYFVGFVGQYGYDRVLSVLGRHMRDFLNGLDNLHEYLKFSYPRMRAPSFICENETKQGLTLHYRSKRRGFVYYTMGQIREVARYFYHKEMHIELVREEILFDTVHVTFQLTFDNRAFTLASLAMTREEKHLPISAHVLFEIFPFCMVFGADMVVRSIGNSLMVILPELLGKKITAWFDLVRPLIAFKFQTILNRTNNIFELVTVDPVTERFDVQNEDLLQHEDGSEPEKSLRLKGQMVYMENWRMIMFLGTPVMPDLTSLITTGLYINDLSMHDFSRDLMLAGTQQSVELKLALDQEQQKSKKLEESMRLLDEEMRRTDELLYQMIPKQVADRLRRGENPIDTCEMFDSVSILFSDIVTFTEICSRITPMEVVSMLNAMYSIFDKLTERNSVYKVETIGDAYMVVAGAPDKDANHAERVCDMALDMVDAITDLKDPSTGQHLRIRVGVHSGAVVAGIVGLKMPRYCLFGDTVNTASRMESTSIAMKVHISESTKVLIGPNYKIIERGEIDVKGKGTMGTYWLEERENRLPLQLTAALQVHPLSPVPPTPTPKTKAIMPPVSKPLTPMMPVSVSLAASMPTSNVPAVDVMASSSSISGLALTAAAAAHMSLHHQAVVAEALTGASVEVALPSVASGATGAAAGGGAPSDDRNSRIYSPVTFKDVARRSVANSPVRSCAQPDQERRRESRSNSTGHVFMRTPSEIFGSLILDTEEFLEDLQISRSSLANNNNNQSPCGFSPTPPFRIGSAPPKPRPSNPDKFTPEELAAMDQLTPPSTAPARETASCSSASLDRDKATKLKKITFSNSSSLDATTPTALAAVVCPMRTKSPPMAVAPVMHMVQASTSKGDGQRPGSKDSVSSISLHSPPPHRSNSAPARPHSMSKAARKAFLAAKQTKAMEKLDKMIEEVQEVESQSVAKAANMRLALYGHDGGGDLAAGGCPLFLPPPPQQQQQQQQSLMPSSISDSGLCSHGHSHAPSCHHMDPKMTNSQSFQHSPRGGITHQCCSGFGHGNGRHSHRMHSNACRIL

Gyc-88EL/89Da = Gyc-88EL/89Da (Drosophila melanogaster, UniProt Q8INF0+Q9VEU6); format: biochemical
Chain of Gyc-88EL/89Da (Q9VEU6 whole entry, one chain of several): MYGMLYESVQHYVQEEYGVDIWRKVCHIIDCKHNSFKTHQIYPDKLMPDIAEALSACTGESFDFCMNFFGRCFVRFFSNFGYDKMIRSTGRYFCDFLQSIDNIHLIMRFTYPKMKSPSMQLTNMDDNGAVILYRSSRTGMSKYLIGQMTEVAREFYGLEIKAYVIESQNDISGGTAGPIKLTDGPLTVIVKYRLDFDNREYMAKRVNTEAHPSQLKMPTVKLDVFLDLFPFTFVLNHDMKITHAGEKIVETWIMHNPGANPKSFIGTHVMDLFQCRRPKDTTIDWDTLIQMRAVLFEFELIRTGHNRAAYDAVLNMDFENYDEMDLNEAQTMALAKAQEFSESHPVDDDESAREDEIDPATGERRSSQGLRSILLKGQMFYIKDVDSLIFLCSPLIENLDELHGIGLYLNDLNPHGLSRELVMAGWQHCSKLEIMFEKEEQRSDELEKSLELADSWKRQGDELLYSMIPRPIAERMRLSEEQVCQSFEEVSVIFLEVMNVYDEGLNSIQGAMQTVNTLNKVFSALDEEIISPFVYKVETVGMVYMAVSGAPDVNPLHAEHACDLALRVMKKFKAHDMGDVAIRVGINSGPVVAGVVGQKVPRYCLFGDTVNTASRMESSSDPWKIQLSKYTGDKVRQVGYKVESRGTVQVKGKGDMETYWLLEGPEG

Gyc-88EL/89Db [2] = target: T2, Gyc-88EL/89Db (Drosophila melanogaster, UniProt Q8INF0+Q9VEU5); format: biochemical; conditions: for activation by NO-independent activator: COS-7 cell extracts, 4mM Mg2+
T2 sequence (Q9VEU5 whole entry, one chain of several): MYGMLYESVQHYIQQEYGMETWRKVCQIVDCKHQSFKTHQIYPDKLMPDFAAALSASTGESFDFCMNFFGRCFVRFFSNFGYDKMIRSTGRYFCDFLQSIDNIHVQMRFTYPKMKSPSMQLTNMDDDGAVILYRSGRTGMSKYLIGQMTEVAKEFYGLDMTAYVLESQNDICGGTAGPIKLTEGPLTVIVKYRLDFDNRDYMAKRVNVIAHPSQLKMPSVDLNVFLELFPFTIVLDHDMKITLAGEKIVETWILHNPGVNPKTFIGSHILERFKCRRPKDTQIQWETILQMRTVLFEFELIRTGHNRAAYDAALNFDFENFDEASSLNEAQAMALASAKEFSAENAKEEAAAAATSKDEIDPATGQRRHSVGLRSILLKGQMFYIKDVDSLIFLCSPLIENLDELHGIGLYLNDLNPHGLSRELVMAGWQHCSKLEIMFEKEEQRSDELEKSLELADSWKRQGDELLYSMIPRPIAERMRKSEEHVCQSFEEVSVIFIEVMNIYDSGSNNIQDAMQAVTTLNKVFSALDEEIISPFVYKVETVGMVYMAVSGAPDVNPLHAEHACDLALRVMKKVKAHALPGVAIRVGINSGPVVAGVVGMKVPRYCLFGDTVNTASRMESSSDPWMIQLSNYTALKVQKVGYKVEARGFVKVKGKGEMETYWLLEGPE

Gycα-99B/β-100B = Gycα-99B/β-100B (Drosophila melanogaster, UniProt Q07093+Q9VA09); format: biochemical
[3] = NO donor; cited from earlier work
Gyc-88EL [4] = target: T1, Gyc-88EL; conditions: ref Langlais et al. 2004, cited from earlier work
Gyc-88EL/89Db [5] = target: T2, Gyc-88EL/89Db; conditions: ref Langlais et al. 2004; cited from earlier work

Vmax Mn/Mg (Gyc-88EL [1]; ratio of Vmax in Mn2+ to Mg2+): 1.71
Vmax Mn/Mg (Gyc-88EL/89Da; ratio of Vmax in Mn2+ to Mg2+): 46.9
Vmax Mn/Mg (Gyc-88EL/89Db [2]; ratio of Vmax in Mn2+ to Mg2+): 1.81
Vmax Mn/Mg (Gycα-99B/β-100B; ratio of Vmax in Mn2+ to Mg2+): 96.7
Compound: Nc1nc2c(ncn2[C@@H]2O[C@H](COP(=O)(O)OP(=O)(O)OP(=O)(O)O)[C@@H](O)[C@H]2O)c(=O)[nH]1 [GTP]

Compound: CCNCCN(CC)N(O)N=O [NOC-12]
pEC50 (Gyc-88EL/89Da): ~5.70
pEC50 (Gyc-88EL/89Db [2]): ~5.70
half-life [3]: 5.45 h

Compound: CC(=O)NC(C(=O)O)C(C)(C)SN=O (centres unmarked) [SNAP, S-nitroso-N-acetylpenicillamine]
EC50 for activation (Gyc-88EL [1]; COS-7 cell extracts, 4mM Mg2+): not saturated with 100 μM SNAP
pEC50 (Gyc-88EL/89Da): ~5.00
pEC50 (Gyc-88EL/89Db [2]): ~5.00

Compound: CCN(CC)/[N+]([O-])=N/O [DEA-NONOate, diethylamine- (DEA)-NONOate]
maximal stimulation of guanylyl cyclase activity (Gyc-88EL [1]; COS-7 cell extracts, 4mM Mg2+): No stimulation
maximal stimulation of guanylyl cyclase activity (Gyc-88EL/89Da; COS-7 cell extracts, 4mM Mg2+): No stimulation
pEC50 (Gyc-88EL/89Db [2]): ~7.00
DEA-NONOate-stimulated guanylyl cyclase activity (Gyc-88EL/89Db [2]; 1 μM DEA-NONOate, absence of ODQ, basal 208 ± 19): 676 ± 70 fmoles cGMP/min/mg protein
concentration of maximal activation (Gyc-88EL/89Db [2]; bell-shaped response): about 1 μM
activation at 100 μM (Gyc-88EL [4]; 100 μM): did not significantly activate
activation at 100 μM (Gyc-88EL/89Db [5]): did not significantly activate

Compound: O=c1onc2cnc3ccccc3n12 [ODQ, 1H-[1,2,4]oxadiazolo [4,3,-a]quinoxaline-1-one]
inhibition of NOC-12-stimulated activity (Gyc-88EL/89Da; 100 μM ODQ, data not shown): inhibited
DEA-NONOate-stimulated guanylyl cyclase activity in the presence of ODQ (Gyc-88EL/89Db [2]; 1 μM DEA-NONOate + 100 μM ODQ, 676 ± 70 in the absence): 141 ± 21 fmoles cGMP/min/mg protein
inhibition of NOC-12-stimulated activity (Gyc-88EL/89Db [2]; 100 μM ODQ, data not shown): inhibited
basal guanylyl cyclase activity in the presence of ODQ (Gyc-88EL/89Db [2]; 100 μM ODQ, 208 ± 19 in the absence): 237 ± 13 fmoles cGMP/min/mg protein
blocking of the NO-stimulation (Gycα-99B/β-100B; all forms of the soluble guanylyl cyclases): effective at blocking the NO-stimulation
inhibition of the activation by sodium nitroprusside (Gyc-88EL [4]): ineffective

Compound: Nc1nc(-c2nn(Cc3ccccc3F)c3ncccc23)ncc1C1CC1 [BAY 41-2272]
activation by NO-independent activator (Gyc-88EL [1]; COS-7 cell extracts, 4mM Mg2+): None of the atypical guanylyl cyclase subunit combinations showed any activation
activation by NO-independent activator (Gyc-88EL/89Da; COS-7 cell extracts, 4mM Mg2+): None of the atypical guanylyl cyclase subunit combinations showed any activation
activation by NO-independent activator (Gyc-88EL/89Db [2]): None of the atypical guanylyl cyclase subunit combinations showed any activation
pEC50 (Gycα-99B/β-100B): 5.14
activation at 30 μM (Gycα-99B/β-100B; 30 μM, 4mM Mg2+): over 100 fold

activation by NO-independent activator (Gyc-88EL [1]; COS-7 cell extracts, 4mM Mg2+): insensitivity
activation by NO-independent activator (Gyc-88EL/89Da; COS-7 cell extracts, 4mM Mg2+): insensitivity
activation by NO-independent activator (Gyc-88EL/89Db [2]): insensitivity
activation by NO-independent activator (Gycα-99B/β-100B): only activate the conventional enzyme
Compound: OCc1ccc(-c2nn(Cc3ccccc3)c3ccccc23)o1 [YC-1]

— paper PMC1307573 (Journal of Insect Science, 2005)
